Series [1] deals with H9c2 cells. Briefly: Mitochondrial ROS (mitoSox) in H9c2 cells after hydrogen peroxide treatment. The following applies: chelator pretreatment. It is filed as cell-based, rat. On the procedure: (§1) H9c2 cardiomyoblasts were cultured in DMEM (ATCC) supplemented with 10% FBS (Thermo) and Penicillin/Streptomycin (Cellgro). HEK293T cells were cultured in MEM (Cellgro) supplemented with 10% FBS, sodium pyruvate (Cellgro) and Penicillin/Streptomycin. Unless otherwise specified, cells were treated with 200 μM of DFO or 100 μM of BPD for two hours when indicated prior to addition of 600 μM of H2O2 when indicated for 6 hours. RNA isolation and qRT-PCR RNA was isolated using RNA-STAT60 (Tel-Test) according to the manufacturer's instructions, and subjected to DNAse I (Ambion) digestion to remove residual DNA. Purified RNA was then reverse transcribed with Random Hexamer and Oligo dT(16) (Applied Biosystems) and amplified on a 7500 Fast Real-Time PCR system using Fast SYBR Green PCR Master Mix (Applied Biosystems). mRNA levels were calculated based on the difference of threshold Ct values in target gene and average Ct values of 18s, Actb, B2m, and Hprt in the same sample.
Mitochondrial ROS levels in intact cells were quantified using MitoSox Red (Life Technologies). Briefly, cells were loaded with MitoSox to stain for mitochondrial ROS and Hoechst 33342 for nuclei counter stain. Images were obtained on a Zeiss AxioObserver.Z1 microscope and analyzed with ImageJ software (NIH). MitoSox signal in the nuclei was subtracted to exclude localization of the dye to the nuclei.

For series [2] the following is noted: cited from earlier work.
Series [3] deals with H9c2 cells. Briefly: Mitochondrial membrane potential (TMRE) in H9c2 cells. It is filed as cell-based, rat. The following applies: H2O2. On the procedure:
as §1
Cells were stained with 5 nM of TMRE (Life Technology) and counter stained with Hoechst 33342. Images were obtained on a Zeiss AxioObserver.Z1 microscope and analyzed with ImageJ software (NIH).

The test system of series [4] is H9c2 cells. Briefly: Cytosolic and nuclear iron in H9c2 cells preloaded with radioactive 55Fe. It is filed as cell-based, rat. Particulars: H9c2 cells preloaded with 55Fe. On the procedure: as §1
For nuclear and cytosolic iron, cells were loaded with 280 nM of ^55Fe-NTA. Excess ^55Fe-NTA was washed off with cold PBS containing 200 μM DFO prior to chelator treatment. The nuclear and cytosolic fractions were isolated using NE-PER Nuclear and Cytoplasmic Extraction Reagents (Pierce) and the radioactivity was quantified with liquid scintillation.

The test system of series [5] is wild-type mice subjected to I/R. Description: Ischemia/reperfusion (I/R) injury in chelator-pretreated wild-type mice. It is filed as in vivo. On the procedure:
(§2) To test the use of these iron chelators in the setting of I/R, mice were pretreated for a week with these chelators and then subjected to I/R or sham operation. Chelation was continued for two weeks after the operation. […] To rule out any changes of serum iron hematopoiesis that can account for the cardiac functional difference, we performed complete blood counts and measured serum iron parameters in wild-type mice treated with iron chelators for 3 weeks.
(§3) Mice were treated with 80 mg/kg BPD (Sigma) in normal saline solution daily or 50 mg/kg DFO (Sigma) in normal saline every other day via intraperitoneal injection. The dose of BPD was chosen based on its ability to modulate cardiac mitochondrial iron, and the dose of DFO was chosen according to previously published studies (Ichikawa et al., 2014). BPD was prepared as a 400 mg/ml stock solution in ethanol and diluted 1:100 in normal saline to working concentration. DFO was prepared as a 250 mg/ml stock in water and diluted 1:100 in normal saline to working concentration.
The procedure was performed as described previously (Wu et al., 2011).
Parasternal short- and long-axis views of the heart were obtained using a Vevo 770 high-resolution imaging system with a 30 MHz scan head. 2D and M-mode images were obtained and analyzed. Ejection fraction was calculated from M mode image using Teichholtz equation, and fractional shortening was directly calculated from end-systolic and end-diastolic chamber size from M-mode images.
At the time of tissue harvest, heart was excised and rinsed in phosphate buffered saline to remove excess blood on tissue and in ventricles. Hearts were then submerged into OTC compound and frozen in liquid nitrogen. For hearts with I/R injury, sections were collected 500 μm below suture line to capture the injured region. Sections were stained with hematoxylin and eosin for evaluation of general cardiac morphology and tissue organization. Masson Trichrome staining were used to visualize cardiac fibrosis. Fibrosis was quantified from low power microscope images by dividing the arc length of fibrotic scar to the circumference of left ventricle.
H9c2 cardiomyoblasts were cultured in DMEM (ATCC) supplemented with 10% FBS (Thermo) and Penicillin/Streptomycin (Cellgro). HEK293T cells were cultured in MEM (Cellgro) supplemented with 10% FBS, sodium pyruvate (Cellgro) and Penicillin/Streptomycin. […] Purified RNA was then reverse transcribed with Random Hexamer and Oligo dT(16) (Applied Biosystems) and amplified on a 7500 Fast Real-Time PCR system using Fast SYBR Green PCR Master Mix (Applied Biosystems). mRNA levels were calculated based on the difference of threshold Ct values in target gene and average Ct values of 18s, Actb, B2m, and Hprt in the same sample.

Series [6] in a line: Complete blood count and serum iron parameters in wild-type mice with chelator treatment. It is filed as in vivo. The following applies: iron chelators for 3 weeks, n = 5, mean±SEM. How it is done: as §2, §3

Entries after “also recorded” stand apart in the source; their conditions may differ.

Consider one molecule from patent US10258612B2, “Mitochondrial lipid permeable iron chelators for treating and preventing ischemia/reperfusion (I/R) injury in the heart following an ischemic event” (Northwestern University, priority 2015, dated 2019).

`c1ccc(-c2ccccn2)nc1` [BPD, 2,2′-bipyridyl]: in the series with H9c2 cells [1], the “increase in mitochondrial ROS after hydrogen peroxide treatment (mitoSox)” value was “significantly attenuated”. Further, the “log P” value in series [2] is given as 1.5. Besides, the “mitochondrial membrane potential after oxidative stress” value in the series with H9c2 cells [3] is recorded as “prevented the significant decrease of mitochondrial membrane potential after oxidative stress”. Further, in the series with H9c2 cells [4], the cytosolic iron entry is “significant decreases” and the nuclear iron result is “significant decreases”. In addition, the “cardiac remodeling (tissue fibrosis) after I/R” value in series [5] (mice pretreated for a week, H&E and Masson Trichrome staining) is given as “less cardiac remodeling compared to either vehicle- or DFO-treated mice”. Moreover, the “cardiac function after I/R / protection against I/R injury” value in series [5] (mice pretreated for a week, chelation continued for two weeks after operation) is “significantly preserved cardiac function after I/R; also recorded: protected mice against I/R injury”. For the same molecule, the “expression of Nppa, Nppb and Myh7 after I/R” value in series [5] (mice pretreated for a week, subjected to I/R) is “attenuated the expression of Nppa, Nppb and Myh7”. Also, the “ROS production after I/R” value in series [5] (mice pretreated with chelator) is listed as “reduced ROS production”. Also, in series [6], the Hematocrit was 47.53 ± 1.84%, the Hemoglobin is 13.12 ± 0.30 g/dL, the “Iron Saturation” value came to 15.25 ± 0.81 % and the MCH is on record as 12.38 ± 0.53 pg. Moreover, in series [6], the MCHC is 26.34 ± 1.21 g/dL, the MCV is recorded as 47.02 ± 0.36 fL, the Platelet was 1007 ± 236.72 10^3/μL and the RBC is listed as 10.7 ± 0.62 10^6/μL. Besides, in series [6], the RDW is given as 17 ± 0.41%, the “Serum Iron” value stood at 44.40 ± 2.24 µg/dL, the “Total Iron Binding Capacity” value amounted to 291.42 ± 4.63 µg/dL and the “Unsaturated Iron Binding Capacity” value stood at 247.02 ± 4.93 µg/dL. Moreover, the WBC in series [6] is given as 5.70 ± 0.40 10^3/μL.
